Like-named read-outs stand apart in the source and are kept apart here.
Tests used:
[1] = target: T1, CTX-M-15 (Escherichia coli, UniProt Q9EXV5); test: Partition ratio measurement; assay type: biochemical; details: CTX-M-15, incubation 1 h, ambient temperature
T1 construct: made in house
Protocol: (§1) Partition ratios were measured as described previously[10] at ambient temperature in Buffer A. ETX1317 was freshly dissolved in assay buffer and an arithmetic dilution series was prepared from 0 to 12 μM in 1.2 μM steps. Each of these was mixed with an equal volume of 6 μM β-lactamase. At each time point, the mixtures were diluted in buffer to 2-fold the final reaction concentration of enzyme. Then, 22.5 μL of enzyme + inhibitor solutions were mixed with 22.5 μL of 200 μM nitrocefin substrate in a clear polystyrene 384-well assay plate. The absorbance at 490 nm was monitored at 10-s intervals for 10 min with a Spectramax Plus 384 plate reader. The slopes of the progress curves (ΔA490/s) were calculated. The percent of the control value for each inhibitor concentration was plotted versus the inhibitor:enzyme molar ratio. A best-fit line was calculated with a fixed point at 100% on the y-axis.

[2] = target: T2, KPC-2 (Klebsiella pneumoniae, UniProt Q9F663); test: Partition ratio measurement; assay type: biochemical
T2 construct: made in house
Protocol: as §1

[3] = target: T3, SHV-5 (Klebsiella pneumoniae, UniProt P0A3M1); test: Partition ratio measurement; assay type: biochemical; details: SHV-5, incubation 1 h, ambient temperature
T3 construct: made in house
Protocol: as §1

[4] = target: T4, AmpC (Pseudomonas aeruginosa, UniProt P24735); test: Partition ratio measurement; assay type: biochemical; details: incubation 1 h, ambient temperature
T4 construct: made in house
Protocol: as §1

[5] = target: T5, OXA-48 (Klebsiella pneumoniae, UniProt Q6XEC0); test: Partition ratio measurement; assay type: biochemical; details: OXA-48, incubation 1 h, ambient temperature
T5 construct: made in house
Protocol: as §1

[6] = target: T6, TEM-1 (Escherichia coli, UniProt P62593); design: method as in PMID 28665414, PMID 32658473; details: ref 6 and 7, cited from earlier work; for kinact/Ki: TEM-1, ambient temperature, pH 7.0, nitrocefin
T6 construct: made in house

[7] = target: T5, OXA-48; details: OXA-48, ambient temperature, pH 7.0, nitrocefin; ref 6 and 7; cited from earlier work
[8] = target: T2, KPC-2; details: KPC-2, ambient temperature, pH 7.0, nitrocefin; ref 6 and 7; cited from earlier work
[9] = target: OXA-24; details: OXA-24, ambient temperature, pH 7.0, nitrocefin; ref 6 and 7; cited from earlier work
[10] = target: T1, CTX-M-15; details: CTX-M-15, ambient temperature, pH 7.0, nitrocefin; ref 6 and 7; cited from earlier work
[11] = target: T7, P. aeruginosa AmpC (Pseudomonas aeruginosa, UniProt P24735); details: ambient temperature, pH 7.0, nitrocefin, ref 6 and 7; cited from earlier work
T7 construct: made in house

[12] = target: T6, TEM-1; test: β-lactamase acylation exchange (intact protein mass spectrometry); assay type: binding; details: donor TEM-1, acceptor OXA-48, ambient temperature
Protocol: (§2) β-Lactamase acylation exchange experiments and intact protein mass spectrometry were performed as described previously.[10] OXA-48 was used as the acceptor enzyme in most cases because of the stability of the ETX1317–OXA-48 complex. When OXA-48 was the donor enzyme, CTX-M-15 was used as the acceptor. Each β-lactamase (5 μM) was incubated with or without 25 μM ETX1317 in a 60 μL volume of 50 mM HEPES (pH 7.0) buffer for 1 h at ambient temperature. The samples were diluted to 400 μL with ice-cold buffer and then concentrated to ∼40 μL with Microcon YM-10 centrifugal ultrafilters (Millipore-Sigma, Burlington, MA) at 14 000g for 45 min at 4 °C. The retentates were rediluted to 400 μL with ice-cold buffer and reconcentrated as before. This was repeated a further time, leaving no significant amount of unbound ETX1317. The sample volumes were restored to 60 μL with ice-cold buffer and the samples were divided into two equal aliquots of 30 μL. Buffer (6 μL) was added to one aliquot, and 6 μL of acceptor enzyme was added to the other. The final acceptor enzyme concentrations were 5 μM. Samples were incubated at ambient temperature for the times indicated and then stored at −80 °C until analysis. LC-MS analysis was performed on a Triple TOF5600+ (AB Sciex, Redwood City, CA) equipped with a DuoSpray Ion Source and a Shimadzu LC 20-AD HPLC system (Shimadzu Scientific Instruments, Marlborough, MA). A 2 μL portion of each sample was injected onto a Poroshell 300SB-C8 75 × 2.1 mm, 5 μm column (Agilent) at 30 °C with a gradient of acetonitrile (5–95%) in 0.1% formic acid for 3 min followed by a 1 min hold at 95% before returning to 5% acetonitrile at a flow rate of 0.4 mL/min. The mass spectrometer was operated in positive ion and intact protein mode with source temperature of 450 °C. LC-MS data were acquired in the TOF MS mode for m/z+ from 600 to 2000. Nebulizer gas (GS1), heater gas (GS2), and curtain gas were set at 60, 70, and 30 psi, respectively. Ion spray voltage was 5500 V. Declustering voltage was 100 V, and collision energy was 10 V. Peak masses for protein species were determined following spectrum deconvolution using PeakView version 2.2 software. Mass accuracy of intact proteins is ±1 Da.

[13] = target: T8, Pseudomonas aeruginosa AmpC (Pseudomonas aeruginosa, UniProt P24735); test: as above; assay type: binding; details: acceptor OXA-48, 1, 2 and 17 h, ambient temperature
T8 construct: made in house
Protocol: as §2

[14] = target: T9, Enterobacter cloacae P99 (Enterobacter cloacae, UniProt P05364); test: as above; assay type: binding; details: donor P99, acceptor OXA-48, ambient temperature
T9 construct: made in house
Protocol: as §2

[15] = target: T1, CTX-M-15; test: as above; assay type: binding; details: donor CTX-M-15, acceptor OXA-48, ambient temperature
Protocol: as §2

[16] = target: T2, KPC-2; test: as above; assay type: binding; details: donor KPC-2, acceptor OXA-48, 19 h, ambient temperature
Protocol: as §2

[17] = target: T3, SHV-5; test: as above; assay type: binding; details: donor SHV-5, acceptor OXA-48, ambient temperature
Protocol: as §2

[18] = target: T5, OXA-48; test: as above; assay type: binding; details: donor OXA-48, acceptor CTX-M-15, 19 h, ambient temperature, no added bicarbonate
Protocol: as §2

[19] = target: T10, E. cloacae P99 (Enterobacter cloacae, UniProt P05364); details: cited from earlier work
T10 construct: made in house

[20] = test system: CTX-M-14; design: method as in PMID 32658473; details: higher than that of avibactam; cited from earlier work
[21] = target: T6, TEM-1; test: koff measurement by jump dilution; assay type: biochemical; details: TEM-1, jump dilution, ambient temperature
Protocol: (§3) Dissociation rate constants (koff) were measured by the jump-dilution method at ambient temperature as described previously.[10] Enzymes at 500 000-fold the final β-lactamase assay concentration (see above) were incubated for 15–20 min with 3-fold molar excess of freshly dissolved ETX1317 at ambient temperature in Buffer A. The mixtures were then diluted 250 000-fold with Buffer A, and 22.5 μL of the dilutions was mixed with 22.5 μL of 200 μM nitrocefin in Buffer A. The absorbance at 490 nm was monitored at 30 s intervals for 2 h at ambient temperature with a Spectramax Plus 384 plate reader. Progress curves were fit by nonlinear regression using XLfit (ID Business Solutions, Boston, MA) to the following equation: [drawing 2] where P is A490, C is the initial A490, V0 is the initial rate of absorbance increase, Vs is the final rate of absorbance increase, t is time in seconds, and k is the first order rate constant for enzyme reactivation due to inhibitor dissociation, koff.

[22] = target: T7, P. aeruginosa AmpC; test: koff measurement by jump dilution; assay type: biochemical; details: ambient temperature
Protocol: as §3

[23] = target: T10, E. cloacae P99; test: koff measurement by jump dilution; assay type: biochemical; details: ambient temperature
Protocol: as §3

[24] = target: T1, CTX-M-15; test: koff measurement by jump dilution; assay type: biochemical; details: CTX-M-15, jump dilution, ambient temperature
Protocol: as §3

[25] = target: T2, KPC-2; test: koff measurement by jump dilution; assay type: biochemical; details: KPC-2, jump dilution, ambient temperature
Protocol: as §3

[26] = target: T3, SHV-5; test: koff measurement by jump dilution; assay type: biochemical; details: SHV-5, jump dilution, ambient temperature
Protocol: as §3

[27] = target: OXA-10; details: OXA-10, ambient temperature, pH 7.0, nitrocefin; ref 6 and 7; cited from earlier work
[28] = target: T3, SHV-5; details: SHV-5, ambient temperature, pH 7.0, nitrocefin; ref 6 and 7; cited from earlier work
[29] = target: T3, SHV-5; design: method as in PMID 28835096; details: cited from earlier work
[30] = target: T5, OXA-48; details: OXA-48, 37 °C, discontinuous jump dilution method covering 6 h; cited from earlier work
[31] = target: T1, CTX-M-15; details: cited from earlier work
[32] = target: T6, TEM-1; details: cited from earlier work
[33] = target: T10, E. cloacae P99; details: cited from earlier work; remark: listed apart in the source
[34] = target: T7, P. aeruginosa AmpC; details: cited from earlier work
[35] = target: T2, KPC-2; details: cited from earlier work
[36] = target: OXA-23; details: OXA-23, ambient temperature, pH 7.0, nitrocefin; ref 6 and 7; cited from earlier work
[37] = E. cloacae P99, ambient temperature, pH 7.0, nitrocefin, ref 6 and 7

T10 sequence (P05364 21-381): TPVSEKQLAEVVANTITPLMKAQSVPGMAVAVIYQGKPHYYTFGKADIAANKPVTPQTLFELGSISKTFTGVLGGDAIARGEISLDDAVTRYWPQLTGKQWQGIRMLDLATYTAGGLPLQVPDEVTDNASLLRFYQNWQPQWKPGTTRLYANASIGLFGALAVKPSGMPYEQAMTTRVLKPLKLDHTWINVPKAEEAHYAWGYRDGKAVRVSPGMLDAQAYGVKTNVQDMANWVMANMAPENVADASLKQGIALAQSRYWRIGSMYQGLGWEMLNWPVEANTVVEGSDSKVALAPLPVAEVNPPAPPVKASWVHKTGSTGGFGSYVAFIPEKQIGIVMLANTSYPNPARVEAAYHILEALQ
T7 sequence (P24735 27-397): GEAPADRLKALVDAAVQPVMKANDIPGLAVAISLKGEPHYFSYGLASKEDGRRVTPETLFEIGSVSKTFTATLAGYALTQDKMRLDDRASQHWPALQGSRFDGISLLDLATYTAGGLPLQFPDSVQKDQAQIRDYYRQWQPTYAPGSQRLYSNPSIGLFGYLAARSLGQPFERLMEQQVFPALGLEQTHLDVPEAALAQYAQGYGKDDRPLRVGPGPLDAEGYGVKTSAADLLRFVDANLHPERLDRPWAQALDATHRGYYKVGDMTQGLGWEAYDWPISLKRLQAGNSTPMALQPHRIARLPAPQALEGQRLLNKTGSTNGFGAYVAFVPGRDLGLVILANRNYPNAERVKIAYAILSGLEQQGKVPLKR
T2 sequence (Q9F663 25-293, looked up, species assumed): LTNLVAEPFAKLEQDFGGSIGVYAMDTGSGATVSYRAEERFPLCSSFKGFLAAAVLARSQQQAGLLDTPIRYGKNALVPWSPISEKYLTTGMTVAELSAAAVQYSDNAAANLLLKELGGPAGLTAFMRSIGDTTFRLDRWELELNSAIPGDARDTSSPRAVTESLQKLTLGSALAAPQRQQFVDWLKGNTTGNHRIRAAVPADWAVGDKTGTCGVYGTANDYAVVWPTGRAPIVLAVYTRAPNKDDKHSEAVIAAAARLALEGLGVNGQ
T5 sequence (Q6XEC0 23-265, looked up, species assumed): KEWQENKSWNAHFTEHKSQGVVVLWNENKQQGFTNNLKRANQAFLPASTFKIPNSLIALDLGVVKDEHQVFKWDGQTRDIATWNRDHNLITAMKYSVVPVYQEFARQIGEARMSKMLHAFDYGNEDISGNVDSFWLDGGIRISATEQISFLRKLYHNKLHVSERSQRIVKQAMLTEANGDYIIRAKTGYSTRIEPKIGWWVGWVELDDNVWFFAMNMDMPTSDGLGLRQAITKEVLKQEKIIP
T3 sequence (P0A3M1 22-286, species assumed): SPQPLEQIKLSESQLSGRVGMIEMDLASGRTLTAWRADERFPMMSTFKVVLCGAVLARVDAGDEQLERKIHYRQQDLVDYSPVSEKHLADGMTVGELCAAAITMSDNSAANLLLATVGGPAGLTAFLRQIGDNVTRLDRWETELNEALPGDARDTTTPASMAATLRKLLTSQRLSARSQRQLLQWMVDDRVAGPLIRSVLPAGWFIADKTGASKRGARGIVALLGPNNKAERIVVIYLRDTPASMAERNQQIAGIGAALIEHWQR
T6 sequence (P62593 24-286 limits assumed): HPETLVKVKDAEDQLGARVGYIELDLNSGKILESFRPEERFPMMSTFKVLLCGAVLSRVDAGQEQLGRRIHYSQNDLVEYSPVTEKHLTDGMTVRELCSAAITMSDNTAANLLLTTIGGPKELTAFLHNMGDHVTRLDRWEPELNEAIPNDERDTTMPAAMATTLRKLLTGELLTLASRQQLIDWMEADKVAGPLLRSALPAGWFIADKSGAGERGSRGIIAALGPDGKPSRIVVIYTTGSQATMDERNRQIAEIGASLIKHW
T1 sequence (Q9EXV5 29-291, species assumed): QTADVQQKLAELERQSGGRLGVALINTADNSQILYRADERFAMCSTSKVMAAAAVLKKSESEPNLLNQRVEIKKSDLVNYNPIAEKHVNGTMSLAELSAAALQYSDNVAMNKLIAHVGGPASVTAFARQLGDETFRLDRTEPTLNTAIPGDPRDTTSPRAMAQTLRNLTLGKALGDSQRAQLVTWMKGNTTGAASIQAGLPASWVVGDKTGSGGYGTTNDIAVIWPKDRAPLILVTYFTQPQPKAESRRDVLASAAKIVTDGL
T9 sequence (P05364 21-381): as the sequence (P05364 21-381) above
T4 sequence (P24735 27-397): as the sequence (P24735 27-397) above
T8 sequence (P24735 27-397): as above

## CC1=C[C@@H](C(N)=O)N2C[C@@H]1N(O[C@H](F)C(=O)O)C2=O [ETX1317]
[1]
  partition ratio: 0.7
[2]; KPC-2, 15 min incubation (not shown)
  partition ratio: 1.1
[2]; KPC-2, incubation of enzyme and inhibitor 3 h, ambient temperature
  partition ratio: 1.1
[3]
  partition ratio: 0.9
[4]
  partition ratio: 1.0
[5]
  partition ratio: 1.1
[6]; TEM-1, equilibrium dissociation constant, inhibition not time-dependent on 30 s time scale
  Ki: 0.34 nM
[7]
  kinact/Ki: 5.3 (±0.2) × 10^4 M^–1 s^–1
[8]
  kinact/Ki: 4.9 (±0.2) × 10^4 M^–1 s^–1
[9]
  kinact/Ki: 4.6 (±0.2) × 10^3 M^–1 s^–1
[10]
  kinact/Ki: 4.8 (±0.4) × 10^6 M^–1 s^–1
[11]
  kinact/Ki: 1.20 (±0.04) × 10^4 M^–1 s^–1
[12]
  acylation exchange (recyclization and dissociation of intact inhibitor) from donor to acceptor enzyme: observed
[13]
  acylation exchange (recyclization and dissociation of intact inhibitor) from donor to acceptor enzyme: observed
[14]
  acylation exchange (recyclization and dissociation of intact inhibitor) from donor to acceptor enzyme: observed
[15]
  acylation exchange (recyclization and dissociation of intact inhibitor) from donor to acceptor enzyme: observed
[16]
  acylation exchange (recyclization and dissociation of intact inhibitor) from donor to acceptor enzyme: observed
[17]
  acylation exchange (recyclization and dissociation of intact inhibitor) from donor to acceptor enzyme: observed
[18]
  acylation exchange (recyclization and dissociation of intact inhibitor) from donor to acceptor enzyme: lack of acylation exchange
[19]; [37]
  kinact/Ki: 3.9 (±0.2) × 10^4 M^–1 s^–1
[20]
  potency of CTX-M-14 inhibition relative to avibactam: about 10 fold
[21]
  koff: 0.008 s⁻¹
[22]
  koff: 0.0006 s⁻¹
[23]
  koff: 9.2e-05 s⁻¹
[24]
  koff: 0.00013 s⁻¹
[25]
  koff: 0.00052 s⁻¹
[26]
  koff: 0.002 s⁻¹

## NC(=O)[C@@H]1CC[C@@H]2CN1C(=O)N2OS(=O)(=O)O [avibactam]
[6]
  kinact/Ki: 4 × 10^5 M^–1 s^–1
[7]
  kinact/Ki: 5 × 10^3 M^–1 s^–1
[8]
  kinact/Ki: 6 × 10^3 M^–1 s^–1
[9]
  kinact/Ki: 80 M^–1 s^–1
[10]
  kinact/Ki: 8 × 10^5 M^–1 s^–1
[11]
  kinact/Ki: 3 × 10^3 M^–1 s^–1
[19]; pH 7
  kinact/Ki: 8 × 10^3 M^–1 s^–1
[27]
  kinact/Ki: 70 M^–1 s^–1
[28]
  kinact/Ki: 1 × 10^5 M^–1 s^–1

## CC1=C[C@@H]2CN(C(=O)N2OS(=O)(=O)O)[C@@H]1C(N)=O [durlobactam]
[6]
  kinact/Ki: 1.4 (±0.6) × 10^7 M^–1 s^–1
[7]
  kinact/Ki: 8 (±2) × 10^5 M^–1 s^–1
[29]
  koff: 5.5 (±0.3) × 10^–4 s^–1
[8]
  kinact/Ki: 9.3 (±0.6) × 10^5 M^–1 s^–1
[30]
  koff: 2.5 (±0.3) × 10^–5 s^–1
[9]
  kinact/Ki: 9 (±2) × 10^3 M^–1 s^–1
[10]
  kinact/Ki: 7 (±2) × 10^6 M^–1 s^–1
[11]
  kinact/Ki: 9 (±5) × 10^5 M^–1 s^–1
[31]
  koff: 2.2 (±0.5) × 10^–4 s^–1
[32]
  koff: 1.4 (±0.2) × 10^–3 s^–1
[19]; [37]
  kinact/Ki: 2.3 (±0.4) × 10^6 M^–1 s^–1
[27]
  kinact/Ki: 9 (±2) × 10^3 M^–1 s^–1
[33]
  koff: 3.4 (±0.5) × 10^–4 s^–1
[34]
  koff: 4 (±1) × 10^–3 s^–1
[28]
  kinact/Ki: 6.4 (±0.5) × 10^6 M^–1 s^–1
[35]
  koff: 1.0 (±0.1) × 10^–3 s^–1
[36]
  kinact/Ki: 5.1 (±0.2) × 10^3 M^–1 s^–1
